The target in data set [1] is T1, Mitogen-activated protein kinase 14 (Homo sapiens, UniProt Q16539). The experiment in a line: Inhibition of p38 alpha activity by ELISA.
The target in data set [2] is T1, Mitogen-activated protein kinase 14. The experiment in a line: Inhibition of phospho-p38 alpha activity by ELISA.
Data set [3] can be described thus: Volume of distribution at steady state in rat at 10 mg/kg, iv or 30 mg/kg, po. Format: ADME, organism-based. To be noted: in vivo, read-out: Vdss.
Data set [4] can be described thus: Oral bioavailability in rat at 30 mg/kg, po. Format: ADME, organism-based. To be noted: in vivo.
A short description of data set [5]: Clearance in rat at 10 mg/kg, iv or 30 mg/kg, po. Format: ADME, organism-based. To be noted: in vivo.
Data set [6] in a line: Half life in rat at 10 mg/kg, iv or 30 mg/kg, po. Format: ADME, organism-based. The following applies: in vivo.
Data set [7] in a line: AUC in rat at 10 mg/kg, iv or 30 mg/kg, po. To be noted: plasma. Format: ADME, organism-based.
Data set [8] can be described thus: Tmax in rat at 10 mg/kg, iv or 30 mg/kg, po. Format: ADME, organism-based. To be noted: in vivo.
The nature of data set [9]: Cmax in rat at 10 mg/kg, iv or 30 mg/kg, po. To be noted: in vivo. Format: ADME, organism-based.
In another data set the test system is Blood. The data set can be described thus: Ex vivo inhibition of […]-alpha-production in human whole blood. Format: functional, tissue-based.
The test system of the next data set is THP-1. The experiment in a line: Inhibition of LPS-induced […]-alpha-production in immortalized human THP1 cells. Format: functional, cell-based.

T1 sequence (Q16539 whole entry): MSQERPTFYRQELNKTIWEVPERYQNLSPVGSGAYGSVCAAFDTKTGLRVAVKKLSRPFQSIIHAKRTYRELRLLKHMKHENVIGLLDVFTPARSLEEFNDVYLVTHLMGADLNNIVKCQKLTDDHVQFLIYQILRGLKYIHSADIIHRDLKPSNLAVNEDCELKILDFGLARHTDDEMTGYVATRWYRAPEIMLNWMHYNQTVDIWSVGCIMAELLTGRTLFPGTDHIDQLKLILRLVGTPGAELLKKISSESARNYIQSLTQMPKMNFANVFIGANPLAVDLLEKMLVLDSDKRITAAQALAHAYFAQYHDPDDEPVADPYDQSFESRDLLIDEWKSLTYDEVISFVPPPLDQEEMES

One may read the IC50 as the concentration that gives 50% inhibition. Regarding `COc1c(NC(=O)/C(=N/O)c2ccc(OCCN3CCOCC3)c3ccccc23)cc(C(C)(C)C)cc1NS(C)(=O)=O`, 200 nM corresponded to half-maximal inhibition in data set [1] (IC50).
As to `COc1c(NC(=O)C(O)c2ccc(OCCN3CCOCC3)c3ccccc23)cc(C(C)(C)C)cc1NS(C)(=O)=O` (centres undefined), half-maximal inhibition in [1] (IC50) required 390 nM.
On the same count and under the same terms, the value for `COc1c(C#N)cc(C(C)(C)C)cc1NC(=O)C(=O)c1ccc(-c2ccncc2)c2ccccc12` was 60 nM.
On the same count and under the same terms, then `CC(C)(C)c1cc(C#N)cc(NC(=O)C(=O)c2ccc(OCCN3CCOCC3)c3ccccc23)c1`, with 33 nM; and `COc1c(C#N)cc(C(C)(C)C)cc1NC(=O)C(=O)c1ccc(-c2ccnc(C)c2)c2ccccc12`, with 22 nM.
In data set [1], `N#Cc1cc(NC(=O)C(=O)c2ccc(OCCN3CCOCC3)c3ccccc23)cc(N2CCOCC2)c1` returned an IC50 of 28 nM.
As to `CC(C)(C)c1cccc(NC(=O)C(=O)c2ccc(OCCN3CCOCC3)c3ccccc23)c1`, the IC50 in data set [1] worked out at 250 nM; in data set [2] it was 310 nM.
In the case of `COc1c(NC(=O)C(=O)c2ccc(Nc3ccncc3)c3ccccc23)cc(C(C)(C)C)cc1NS(C)(=O)=O`, the IC50 in [1] is 25 nM; in data set [2] it was 2 nM.
One may read the bioavailability as dose-corrected exposure relative to a reference, in per cent. The low end stands for little systemic uptake, the high end for much systemic uptake. Broadly, the half-life is the time needed for the level to fall by half in the phase considered. High values mean slow decline, low ones rapid decline. A word on the AUC: it is concentration integrated over time. Low values mean low exposure, high ones high exposure. What is called Tmax is the time at which the peak concentration occurs. Usually Cmax stands for the peak of the concentration-time curve. For the compound `COc1c(NC(=O)C(=O)c2ccc(OCCN3CCOCC3)c3ccccc23)cc(C(C)(C)C)cc1NS(C)(=O)=O` [ITX-5061 FREE BASE], the Vd in data set [3] worked out at 5.2 L/kg. For the same compound, in [4], the bioavailability was 77%. Also, the clearance in [5] was 26.7 mL/min/kg. Moreover, the half-life in data set [6] is 3.5 h. Also, the IC50 in [1] worked out at 59 nM; in [2], 38 nM. The AUC in data set [7] worked out at 14000 ng·h/mL. For the same compound, the time of peak concentration (Tmax) in data set [8] was 3 h. For the same compound, the concentration in data set [9] peaked (Cmax) at 1300 ng/mL.
For `COc1c(C#N)cc(C(C)(C)C)cc1NC(=O)C(=O)c1ccc(OCCN2CCOCC2)c2ccccc12`, the Vd in data set [3] amounted to 4.9 L/kg. For the same compound, the bioavailability in data set [4] was 57%. Also, the clearance in data set [5] was 18.3 mL/min/kg. This compound showed a half-life in [6] of 9.8 h. In data set [1], this compound returned an IC50 of 42 nM. For the same compound, in [7], the exposure (AUC) amounted to 15000 ng·h/mL. For the same compound, the Tmax in data set [8] turned out to be 0.5 h. The compound also registered a Cmax in [9] of 2400 ng/mL.
As to `COc1c(NC(=O)C(=O)c2ccc(Nc3ccncn3)c3ccccc23)cc(C(C)(C)C)cc1NS(C)(=O)=O`, the half-inhibitory concentration (IC50) in data set [1] came to 72 nM; in [2] it was 1 nM.
Turning to `COc1c(C#N)cc(C(C)(C)C)cc1NC(=O)C(=O)c1ccc(Nc2ccncc2)c2ccccc12`, the IC50 was determined as 51 nM in [1] and 150 nM in the data set on Blood.
On to `COc1c(NC(=O)Cc2ccc(OCCN3CCOCC3)c3ccccc23)cc(C(C)(C)C)cc1NS(C)(=O)=O`, for which the half-inhibitory concentration (IC50) in [1] was 190 nM; in data set [2], 90 nM.
Regarding `COc1c(Cl)cc(C(C)(C)C)cc1NC(=O)C(=O)c1ccc(OCCN2CCOCC2)c2ccccc12`, the IC50 in data set [1] came to 70 nM.
Turning to `COc1c(NC(=O)C(=O)c2ccc(Oc3ccnc(N4CCOCC4)n3)c3ccccc23)cc(C(C)(C)C)cc1NS(C)(=O)=O`, the IC50 in data set [1] is 38 nM; in [2] it was 13 nM.
`COc1c(C#N)cc(C(C)(C)C)cc1NC(=O)C(=O)c1ccc(-c2cccnc2)c2ccccc12`: in [1], the IC50 is 78 nM.
`COc1c(C#N)cc(C(C)(C)C)cc1NC(=O)C(=O)c1ccc(-c2ccc(F)nc2)c2ccccc12` gave an IC50 in data set [1] of 190 nM.
`CNc1nccc(Nc2ccc(C(=O)C(=O)Nc3cc(C(C)(C)C)cc(NS(C)(=O)=O)c3OC)c3ccccc23)n1`: the results for the IC50 (with THP-1; in [2]; with Blood) were 8 nM, 21 nM and 100 nM, respectively.
In turn, `COc1ccc(C(C)(C)C)cc1NC(=O)C(=O)c1ccc(OCCN2CCOCC2)c2ccccc12` displayed an IC50 in data set [1] of 250 nM.
With `COc1c(NC(=O)C(=O)c2ccc(OCCN3CCOCC3)c3ccccc23)cc(C(C)(C)C)cc1C(=O)NC1CC1`, the 50% inhibitory concentration (IC50) in data set [1] amounted to 71 nM; in [2], 140 nM.

The values are drawn from ChEMBL document CHEMBL1208791, “Optimization of alpha-ketoamide based p38 inhibitors through modifications to the region that binds to the allosteric site” (Bioorg Med Chem Lett, 2010).
